Data on 5 compounds can be found in patent US6900210B2, “Pyridinyl, pyrimidinyl and pyrazinyl amides as potassium channel openers” (Bristol-Myers Squibb Company, priority 2002, dated 2005).

In experiment [1] the target is T1, mKCNQ2 channels (Mus musculus, UniProt Q9Z351).
T1 construct: expressed in transfected cells
As to the kind of experiment: Whole-cell patch-clamp recordings of mKCNQ2 currents. The experiment is classed as cell-based. To be noted: HEK 293 stable cell line expressing mKCNQ2; for EC50: @ −40 mV, room temperature; for Imax (%): maximal current from Hill-type fit. The method, then:
Whole-cell patch-clamp recordings were made from an HEK 293 stable cell line expressing mKCNQ2 channels, maintained in culture for 1-2 days. Patch pipettes had initial resistances of 2.5-4 MQ. Currents were recorded with an EPC9 amplifier (HEKA, Lambrecht, Germany) controlled with software (Pulse, HEKA) run on a standard lab PC. Series resistance compensation was used during current recording, and set at 80%. The series resistance (R) and cell capacitance (C) were determined electronically by subtracting the capacitive currents at the onset and offset of a 5 mV voltage step. The cancellation of wholecell capacitive transients was virtually complete in all cells. Analog current signals were low-pass filtered at 2.9 kHz using a four-pole Bessel filter −3 dB) and stored on a local network server computer at a sampling rate of 1.5 kHz. All recordings were performed at room temperature (20-22° C.). The pipette solution contained (mM): KCl, 150; CaCl2, 2.5; EGTA, 5; MgCl2, 1; HEPES, 10; pH to 7.3 with KOH, and Osmolality of 290-300 mOsm. The extracellular solution contained (mM): NaCl, 140; KCl, 2.5; CaCl2, 2.5; MgCl2, 1; glucose, 10; HEPES, 10; pH to 7.3 with NaOH, and Osmolality of 305-310 mOsm
Concentration response data were generated by measuring the difference in the steady-state amplitude of current in the presence of compound at the end of a 600 ms voltage-clamp step from a holding potential of −80 mV. The concentration-response data were fitted with Hill-type equations: I=Imax/(1+EC50/[A]^nH), where I is the steady-state current at a given concentration of agonist [A]; and Imax, EC50 and nH are parameters estimated from the curve fit. In some cases the concentration-response data were fitted with equations consisting of the sum of two Hill-type components. Current-voltage (IN) relationships for agonist-evoked currents were obtained by performing 600 ms voltage steps (−110 mV to +40 mV) in the absence and presence of agonist.
A general note: The patch-clamp technique gives a direct electrical read-out from membranes.

In experiment [2] the test system is nerve injury-induced tactile allodynia. As to the kind of experiment: Chung model of neuropathic pain (Chung surgery and von Frey test). The experiment is classed as in vivo, Sprague Dawley rats. The following applies: i.v., rat, von Frey thresholds over 90 min, % MPE (Drug AUC) − % MPE (Vehicle AUC). The method, then:
To test agents for activity against peripheral mononeuropathy nerve injury-induced tactile allodynia, male Sprague Dawley rats (wt. 120-160 g) were surgically prepared with unilateral tight ligation of spinal nerves L5 and L6 following the method of Kim and Chung (Kim S. H., Chung J. M. (1992) Pain, September; 50(3):355-63). After 3-4 weeks recovery, paw withdrawal to light touch was assessed as described by Chaplan et al. (Chaplan S. R., et al., (1994) J. Neurosci Methods, July; 53(1):55-63). In brief, rats are placed in a plastic cage with a wire mesh bottom and allowed to acclimate for 15-30 minutes, until cage exploration and grooming stops. […] After acclimation, baseline von Frey thresholds were assessed for the injured hindpaw at −15 min. […] Following drug administration, von Frey thresholds are measured at 15, 30, 60 and 90 min. Data were analyzed by a 2-way repeated measures analysis of variance followed by Dunnett's test (p<0.05). […]
Reversal of neuropathic pain behavior may be expressed as a percentage (0-100%) of the maximum possible effect, over and above the vehicle effects. […]
For example, a compound which immediately reversed neuropathic pain behavior to normal levels, such that animals only responded to the highest von Frey filament (15 g), and maintained normal levels through out the post-drug testing period (90 min) would be calculated as Δ% MPE=100%.

One may read the EC50 as the concentration that produces a half-maximal response.

T1 sequence (Q9Z351 whole entry): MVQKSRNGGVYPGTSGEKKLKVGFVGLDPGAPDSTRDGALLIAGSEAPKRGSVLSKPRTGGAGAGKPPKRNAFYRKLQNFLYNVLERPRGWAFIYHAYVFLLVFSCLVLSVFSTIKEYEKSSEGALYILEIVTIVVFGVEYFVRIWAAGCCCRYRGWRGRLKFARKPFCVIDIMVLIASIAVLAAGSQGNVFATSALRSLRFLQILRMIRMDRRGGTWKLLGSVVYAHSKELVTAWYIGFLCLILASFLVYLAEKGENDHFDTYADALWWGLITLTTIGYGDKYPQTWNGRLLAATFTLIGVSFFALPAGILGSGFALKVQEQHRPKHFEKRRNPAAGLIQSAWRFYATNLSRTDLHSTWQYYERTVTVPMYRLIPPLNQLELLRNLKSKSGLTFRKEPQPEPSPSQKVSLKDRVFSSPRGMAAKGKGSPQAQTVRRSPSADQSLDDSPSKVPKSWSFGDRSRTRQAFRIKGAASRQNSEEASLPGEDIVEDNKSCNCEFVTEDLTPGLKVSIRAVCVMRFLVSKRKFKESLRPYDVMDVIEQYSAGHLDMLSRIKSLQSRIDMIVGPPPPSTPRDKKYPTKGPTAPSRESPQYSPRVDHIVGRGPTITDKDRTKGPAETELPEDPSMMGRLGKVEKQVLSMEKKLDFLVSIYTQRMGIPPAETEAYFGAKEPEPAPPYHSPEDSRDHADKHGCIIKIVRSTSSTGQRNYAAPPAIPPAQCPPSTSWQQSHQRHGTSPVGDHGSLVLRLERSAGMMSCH

Consider `C[C@H](NC(=O)/C=C/c1ccccc1F)c1cccc(Oc2cccnc2)c1` [Example 15, (S)-3-(2-Fluoro-phenyl)-N-{1-[3-(py-ridin-3-yloxy)-phen-yl]-ethyl}-acrylamide], for which, in experiment [1], the EC50 came to 0.198 µM and the “Imax (%)” value came to 812%. The “AUC (Δ % MPE)” value in experiment [2] (10 mg/kg) is 47 (10 mg/kg, i.v.) Δ % MPE.

With `C[C@H](NC(=O)/C=C/c1cc(F)ccc1F)c1cccc(Oc2ccccn2)c1` [Example 9, (S)-3-(2,5-Difluoro-phenyl)-N-{1-[3-(pyridin-2-yl-oxy)-phenyl]-ethyl}-acryl-amide], in experiment [1], the midpoint of the response, the EC50, lay at 0.0012 µM and the “Imax (%)” value was 200%.

Regarding “(S)-4-Phenyl)-N-[1-(3-py- ridin-3-yl-phenyl)-eth- yl]-butyramide [Example 25]”, in experiment [1], a half-maximal effect (EC50) was put at 0.001 µM and the “Imax (%)” value stood at 172%.

In the case of `C[C@H](NC(=O)/C=C/c1cc(F)ccc1F)c1cccc(Oc2ccncc2)c1` [Example 45, (S)-3-(2,5-Difluoro-phenyl)-N-{1-[3-(pyridin-4-yl-oxy)-phenyl]-ethyl}-acryl-amide], in experiment [1], the EC50 was 0.11 µM and the “Imax (%)” value stood at 784%.

Take `NCC1(CC(=O)O)CCCCC1` [Gabapentin, gabapentin, reference compound]: the “AUC (Δ % MPE)” value in experiment [2] (100 mg/kg) was 50 (100 mg/kg, i.v.) Δ % MPE.
